Literature values as cited in patent publication US9278365B2, “Volatile material dispenser and method of emitting a volatile material” (priority 2014, dated 2016).

| Compound | log P (octanol/water partition coefficient) | solubility |
| --- | --- | --- |
| CC(=O)O[C@@H]1C[C@H]2CC[C@]1(C)C2(C)C (racemic) [iso-bornyl acetate] | 4.3 Log P | – |
| OC/C=C/c1ccccc1 [cinnamic alcohol] | 2 Log P | – |
| CC(C=O)Cc1ccc(C(C)(C)C)cc1 (stereo not drawn) [lilial] | 4.4 Log P | – |
| COC(=O)c1ccccc1 [methyl benzoate] | – | 2.1 Log P |
| Cc1ncsc1CCO [sulfurol] | 1.11 Log P | – |
| methy cyclopetenone | 1.29 Log P | – |
